# Literature values as cited in patent US9145409B2, “Benzhydryl derivatives” (CHIESI FARMACEUTICI S.p.A., priority 2013, dated 2015).
# How the values were obtained:
# [1] = tested on: smoking model of COPD in mice
# [2] = COPD patients, oral, given over 4 weeks
# [3] = clinical trials, 500 mg once daily given over 12 months
# [4] = patients with severe disease, frequent exacerbations and mucus hypersecretion
compound,measurement,setting,value
O=C(Nc1c(Cl)cncc1Cl)c1ccc(OC(F)F)c(OCC2CC2)c1 [roflumilast],lung inflammation and emphysema,[1],inhibits lung inflammation and emphysema
same,CXCL8 concentrations in sputum,COPD patients; [2],significantly reduces
same,reduction of the numbers of neutrophils in sputum,COPD patients; [2],36%
same,clinical benefit as add-on,COPD patients; added to salmeterol or tiotropium,provides clinical benefit
same,exacerbations and quality of life,COPD patients; [3],little effect in reducing exacerbations or improving quality of life
same,lung function,COPD patients; [3],improved lung function in COPD patients to a small extent
same,improvement of FEV 1,COPD patients; [4],approximately 50 mL
same,reduction of exacerbation,COPD patients; [4],about 15%
